Reference: PMC5418574, “Facile access to potent antiviral quinazoline heterocycles with fluorescence properties via merging metal-free domino reactions” (Nature Communications, 2017)
Several values for one entry are separate records, joined by “and”; a condition that tells them apart may be missing. Equal values may be shown once. Read-outs that look alike come from different tables or passages of the source.

Assays:
[1] = trypan blue exclusion cytotoxicity assay; assay type: cell-based; settings: human, primary HFFs (human foreskin fibroblasts), 0.2-100 μM for 3 days, n=6 (artesunic acid n=3)
Procedure: (§1) In addition, EC50 values were confirmed using non-GFP-expressing HCMV (strain AD169) by a classical plaque formation assay on HFFs (n=4), providing data consistent with the GFP-based data shown in Table 1, that is, compound 7h, 7.3±0.7 μM; compound 8, 0.3±0.0 μM; compound 9, 0.3±0.1 μM. Moreover, antiviral activity was clearly separated from putative cytotoxic effects because of the results obtained with a standard trypan blue exclusion assay. […] Consistent with these findings are results from a MTS-based cell proliferation assay, showing moderate or no antiproliferative effects on HFFs for all analysed compounds in concentrations up to 30 μM (see Supplementary Fig. 5 and Supplementary Methods). Thus, the new quinazolines and hybrid compounds can be regarded as selective, which is one of the most important aspects in drug design.
Cytotoxicity and Cell Proliferation Assays
Assays measuring distinct parameters of cytotoxicity and/or cell proliferation were performed as described earlier.7, 8 In brief, a trypan blue exclusion assay was performed with cultured cells seeded in 24-well plates and incubated with increasing concentrations of antiviral compounds (range of 0.2 μM to […]
before the percentage of viable cells was determined by microscopic counting (determination at least in triplicates). The cell proliferation assay (CellTiter 96 AQueous One Solution cell proliferation assay; Promega) was performed in a 96-well plate format after a 3-day treatment with compounds under standard conditions of measurement as described by the manufacturer. […]

HCMV AD169-GFP = assay: HCMV GFP-based replication assay (automated GFP fluorometry); assay type: cell-based, human cytomegalovirus
Procedure: The measurement of antiviral activity was based on automated fluorometry using a green fluorescent protein (GFP)-expressing, recombinant HCMV (excitation 485 nm, emission 535 nm; see Supplementary Note 2, Supplementary Data 1 and Supplementary Fig. 4 for dose–response curves).
HCMV GFP‐based replication assay and cell proliferation assay. The replication of human cytomegalovirus (HCMV) was determined by an established HCMV GFP-based replication assay as carried out over a duration of approx. seven days (multi-round infection) using cultures of primary human foreskin fibroblasts (HFFs). HFFs were cultivated in 12-well plates for the infection with a GFP-expressing recombinant human cytomegalovirus (HCMV AD169-GFP) and a signal quantitation using automated GFP fluorometry as described before.2-4 All data represent mean values of determinations in quadruplicate (HCMV infections performed in duplicate, GFP measurements of total cell lysates performed in duplicate). Processing and evaluation of data was performed by the use of Excel (means and standard deviations, see Supplementary Figure 4 and Supplementary Data 1). […]

primary HFFs = assay: confocal laser-scanning microscopy of cellular uptake of fluorescent compounds; assay type: cell-based, human; settings: 1–10 μM, uninfected or HCMV-infected, 20 h incubation
Procedure: Figure 7 Microscopy-based visualization of cellular uptake of fluorescent quinazoline compounds. (a) Artesunic acid–quinazoline hybrids 8 and 9. (b–d) Compounds 7h, 7g and 9 were analysed for properties of fluorescence imaging using confocal laser-scanning microscopy. HFFs were cultivated in six-well plates on cover slips and were either directly incubated with compounds by addition to the culture media for 20 h (c) or were added after HCMV infection (b,d; compound addition at 50 h post infection, fixation and analysis of cells 20 h later; scale bar, 10 μm). The chosen concentrations were 10 μM for compounds 7h, 7g and 9, or 1 μM for compound 9 in panels 4, 9 (b), panels 5, 10 (c) and panels 6–10 (d), referring to the compounds' EC50 values of anti-HCMV activity (see Table 1). The depicted images are representative for three independent experiments. Lack of mycoplasm contamination was verified by routine 4,6-diamidino-2-phenylindole staining. General procedures of cell fixation, indirect immunofluorescence staining of proteins (d) and microscopic analysis have been described elsewhere.
When analysing primary HFFs, the fluorescent compounds 7g, 7h and 9 could nicely be depicted both in extracellular (transparent arrows) and intracellular localizations (filled arrows; Fig. 7b,c). […] A nonfluorescent artemisinin-derived control compound (Fig. 7c, panels 2 and 7; see also Supplementary Fig. 6), the DMSO panels (solvent controls) as well as the inspection of different excitation wavelengths of the confocal laser-scanning microscopy confirmed the specificity of signals and a lack of unwarranted cross-fluorescence. […] An indirect immunofluorescence counterstaining of viral and cellular proteins[36][37] led to the detection of nuclear markers, that is, the viral protein kinase pUL97 and cellular lamins type A/C (Fig. 7d, panels 4, 9, 14 or 5, 10, 15, respectively), in the context of extracellular and intracellular fluorescence signals of compounds 7h and 9 (Fig. 7d, panels 1–5 or 6–15, respectively). […]

[2] = test system: non-GFP-expressing HCMV (strain AD169); assay: classical plaque formation assay on HFFs; assay type: cell-based, human cytomegalovirus; settings: Human betaherpesvirus 5, AD169, read-out: EC50, plaque formation assay
Procedure: as §1

[3] = Human betaherpesvirus 5, AD169, read-out: HCMV EC50
[4] = Human betaherpesvirus 5, AD169, read-out: EC50 (sheet Curves)

SMILES | CC50 at 3 days [1] | GFP signal, % of Inf./DMSO, MW (mean) (HCMV AD169-GFP; 0.01 µM) | GFP signal, % of Inf./DMSO, single determination (raw data) (HCMV AD169-GFP; 0.01 µM) | GFP signal, % of Inf./DMSO, MW (mean) (HCMV AD169-GFP; 0.04 µM) | GFP signal, % of Inf./DMSO, single determination (raw data) (HCMV AD169-GFP; 0.04 µM) | GFP signal, % of Inf./DMSO, MW (mean) (HCMV AD169-GFP; 0.12 µM) | GFP signal, % of Inf./DMSO, single determination (raw data) (HCMV AD169-GFP; 0.12 µM) | GFP signal, % of Inf./DMSO, MW (mean) (HCMV AD169-GFP; 0.37 µM) | GFP signal, % of Inf./DMSO, single determination (raw data) (HCMV AD169-GFP; 0.37 µM) | GFP signal, % of Inf./DMSO, MW (mean) (HCMV AD169-GFP; 1.1 µM) | GFP signal, % of Inf./DMSO, single determination (raw data) (HCMV AD169-GFP; 1.1 µM) | GFP signal, % of Inf./DMSO, MW (mean) (HCMV AD169-GFP; 3.3 µM) | GFP signal, % of Inf./DMSO, single determination (raw data) (HCMV AD169-GFP; 3.3 µM) | EC50 (HCMV AD169-GFP; [3]) | GFP signal, % of Inf./DMSO, MW (mean) (HCMV AD169-GFP; 10 µM) | cellular uptake (intracellular fluorescence) (primary HFFs) | GFP signal, % of Inf./DMSO, single determination (raw data) (HCMV AD169-GFP; 10 µM) | EC50 [2] | EC50 (HCMV AD169-GFP; [4])
Cc1ccc(-c2cc(-c3ccc(C)cc3)c3c(N)ncnc3c2C#N)cc1 [7b] | > 100 µM | 89% | 90% and 87% and 92% | 89% | 91% and 86% and 89% and 90% | 87% | 98% and 91% and 76% and 82% | 89% | 81% and 82% and 95% and 98% | 62% | 65% and 63% and 64% and 56% | 53% | 55% and 51% and 56% | 9.5 ± 4.8 µM | – | – | – | – | –
N#Cc1c(-c2ccc(F)cc2)cc(-c2ccc(F)cc2)c2c(N)ncnc12 [7g] | > 100 µM | – | – | – | – | 93% | 82% and 87% and 122% and 80% | 94% | 94% and 96% and 90% | 79% | 73% and 94% and 71% and 79% | 62% | 61% and 63% and 60% and 66% | 4.9 ± 0.2 µM | 10% | efficient cellular uptake | – | – | –
N#Cc1c(-c2ccc(C(F)(F)F)cc2)cc(-c2ccc(C(F)(F)F)cc2)c2c(N)ncnc12 [7h] | > 100 µM | – | – | – | – | 72% | 60% and 89% and 90% and 49% | 71% | 80% and 75% and 61% and 68% | 75% | 61% and 62% and 87% and 89% | 58% | 58% and 67% and 50% and 57% | 4.6 ± 0.9 µM | 22% | efficient cellular uptake | 16% and 27% and 28% | 7.3 ± 0.7 µM | –
COc1ccc(-c2cc(-c3ccc(OC)cc3)c3c(N)ncnc3c2C#N)cc1 [7i] | > 100 µM | 82% | 85% and 84% and 78% | 91% | 100% and 98% and 84% | 83% | 89% and 80% and 75% | 54% | 53% and 57% | 38% | 39% and 42% and 35% | 31% | 28% and 26% and 34% and 35% | 0.6 ± 0.1 µM | – | – | – | – | 0.56 µM
C[C@@H]1CC[C@H]2[C@@H](C)C(=O)O[C@@H]3O[C@@]4(C)CC[C@@H]1[C@]32OO4 [Artemisinin, reference compound] | > 100 µM | – | – | – | – | – | – | – | – | – | – | – | – | > 10 µM | – | – | – | – | –
C[C@H]1[C@H](OC(=O)CCC(=O)O)O[C@@H]2O[C@@]3(C)CC[C@H]4[C@H](C)CC[C@@H]1[C@@]24OO3 [Artesunic acid, reference compound] | 82 ± 0.9 µM | – | – | – | – | – | – | – | – | – | – | – | – | 3.8 ± 0.4 µM | – | – | – | – | –
Nc1nc(O)c2ncn(COC(CO)CO)c2n1 [Ganciclovir, reference compound] | > 100 µM | – | – | – | – | – | – | – | – | – | – | – | – | 2.6 ± 0.5 µM | – | – | – | – | –
CC1CCC2C(C)C(OC(=O)CCC(=O)OCCCNc3ncnc4c(C#N)c(-c5ccc(F)cc5)cc(-c5ccc(F)cc5)c34)OC3OC4(C)CCC1C32OO4 (stereo not shown) [compound 8] | > 100 µM | 88% | 102% and 75% and 74% | 90% | 89% and 86% and 90% and 94% | 88% | 93% and 86% and 79% | 73% | 80% and 78% and 68% and 66% | 11% | 10% and 11% and 12% | 7% | 7.61% and 6.36% and 6% and 7% | 0.6 ± 0.1 µM | – | – | – | 0.3 µM | 0.64 µM
CC1CCC2C(C)C(OC(=O)CCC(=O)OCCCNc3ncnc4c(C#N)c(-c5ccc(C(F)(F)F)cc5)cc(-c5ccc(C(F)(F)F)cc5)c34)OC3OC4(C)CCC1C32OO4 (stereo not shown) [compound 9] | > 100 µM | 84% | 73% and 98% and 95% and 70% | 81% | 84% and 89% and 73% and 77% | 49% | 51% and 47% and 53% and 46% | 1.06% | 0.952% and 0.865% and 1.31% and 1.1% | 0.87% | 0.763% and 0.908% and 0.901% | – | – | 0.1 µM | – | efficient cellular uptake | – | 0.3 ± 0.1 µM | –
